Experimental findings from publication PMC11953442, “PIP2-mediated oligomerization of the endosomal sodium/proton exchanger NHE9” (Nature Communications, 2025) are described below.

By stoichiometry N is commonly meant a count of units in the complex or per binding partner.

The target in one series is T1, NHE9* (Equus caballus, UniProt F7B113).
T1 construct: gene SLC9A9; residues 8-575 of 644, C-terminally truncated; TEV-GFP-TwinStrep-His8 from S. cerevisiae FGY217; GFP kept for thermal shift, cut for cryo-EM; homodimer
T1 sequence (F7B113 8-575): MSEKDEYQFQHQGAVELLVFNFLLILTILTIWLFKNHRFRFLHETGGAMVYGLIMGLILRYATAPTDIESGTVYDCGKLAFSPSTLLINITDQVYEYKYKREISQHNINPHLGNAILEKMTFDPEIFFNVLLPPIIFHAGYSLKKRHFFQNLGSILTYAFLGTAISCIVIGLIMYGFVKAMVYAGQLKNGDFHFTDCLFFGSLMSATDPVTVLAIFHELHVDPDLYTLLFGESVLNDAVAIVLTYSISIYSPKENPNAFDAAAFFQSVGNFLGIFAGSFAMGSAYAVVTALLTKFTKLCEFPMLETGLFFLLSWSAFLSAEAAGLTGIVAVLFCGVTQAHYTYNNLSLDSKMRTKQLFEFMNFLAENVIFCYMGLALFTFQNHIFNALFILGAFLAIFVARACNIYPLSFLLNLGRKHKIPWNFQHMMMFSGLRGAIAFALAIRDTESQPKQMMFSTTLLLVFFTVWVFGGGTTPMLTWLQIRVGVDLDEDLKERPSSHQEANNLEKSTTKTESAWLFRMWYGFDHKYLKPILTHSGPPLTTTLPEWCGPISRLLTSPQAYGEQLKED
Put plainly: GFP-based thermal shift assay. Format: binding. The settings on record: 0.1 mg/ml lipid; DDM, CHS, octyl glucoside; NHE9*-GFP fusion.

Another series concerns the target T2, EcNhaA-mut2 (Escherichia coli, UniProt P13738, A109T/Q277G/L296M).
T2 construct: gene nhaA; from E. coli Lemo21(DE3); homodimer
Put plainly: cryo-EM structure. It is filed as binding. The settings on record: pH 7.5; DDM; 3 mM cardiolipin added; three lipids at dimer interface; 3.3 A.

Series [1] concerns the molecule itself. The series can be described thus: cryo-EM structure; NHE9* at pH 6.5, 20 mM Mes-Tris, 150 mM NaCl, 0.003% LMNG, 0.0006% CHS; C2 symmetry; AlphaFold2 multimer model refined into a composite map.
Series [2] deals with the molecule itself. The series can be described thus: cryo-EM structure; NHE9*CC purified with bovine brain lipid extract, 20 mM Tris-HCl pH 8, 150 mM NaCl, 0.003% LMNG, 0.0006% CHS; C2 symmetry; two PI(3,5)P2 modelled at the dimer interface.
Series [3] deals with T3, E. coli NhaA WT-like triple mutant (A109T, Q277G, L296M) (E. coli), P13738.
T3 chain: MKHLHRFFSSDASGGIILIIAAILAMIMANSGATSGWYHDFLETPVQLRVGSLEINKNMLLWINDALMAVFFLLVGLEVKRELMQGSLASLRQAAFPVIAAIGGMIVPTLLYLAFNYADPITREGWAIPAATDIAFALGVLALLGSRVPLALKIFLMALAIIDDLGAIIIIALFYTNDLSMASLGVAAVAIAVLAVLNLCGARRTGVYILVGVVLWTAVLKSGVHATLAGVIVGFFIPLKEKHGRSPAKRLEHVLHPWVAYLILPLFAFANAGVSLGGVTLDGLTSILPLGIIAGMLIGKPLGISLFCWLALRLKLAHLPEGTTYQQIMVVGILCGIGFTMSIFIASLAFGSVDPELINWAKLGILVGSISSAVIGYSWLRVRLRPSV
Put plainly: cryo-EM structure; NhaA triple-mutant-GFP fusion in DDM with 3 mM cardiolipin (18:1) added, 20 mM Tris-HCl pH 7.5, 150 mM NaCl, 0.03% DDM; three cardiolipins modelled at the dimer interface. The settings on record: remark: other sources report otherwise.

With `CCCCCCCC(=O)OC[C@H](COP(=O)(O)O[C@@H]1[C@H](O)[C@H](O)[C@@H](OP(=O)(O)O)[C@H](OP(=O)(O)O)[C@H]1O)OC(=O)CCCCCCC` [PI(4,5)P2 dioctanoyl], at NHE9*, the dTm was determined as 8 °C.

For the molecule `CCCCCCCC/C=C\CCCCCCCC(=O)OC[C@H](COP(=O)(O)OCC(O)COP(=O)(O)OC[C@@H](COC(=O)CCCCCCC/C=C\CCCCCCCC)OC(=O)CCCCCCC/C=C\CCCCCCCC)OC(=O)CCCCCCC/C=C\CCCCCCCC` (stereo partly drawn) [cardiolipin (18:1)], on EcNhaA-mut2, the cryo-EM structure result is listed as “map density supported the modelling of cardiolipin at the dimerization interface”.

As to `CCCCCCCCCCCCCCCC(=O)OC[C@H](COP(=O)(O)O[C@@H]1[C@H](O)[C@H](OP(=O)(O)O)[C@@H](O)[C@H](OP(=O)(O)O)[C@H]1O)OC(=O)CCCCCCCCCCCCCCC` [PI(3,5)P2 dipalmitoyl], the dTm on NHE9* was 15 °C.

B1: E. caballus NHE9* (residues 8 to 575), tag removed (domain or fragment, Equus caballus, UniProt F7B113 8-575, looked up)
chain: MSEKDEYQFQHQGAVELLVFNFLLILTILTIWLFKNHRFRFLHETGGAMVYGLIMGLILRYATAPTDIESGTVYDCGKLAFSPSTLLINITDQVYEYKYKREISQHNINPHLGNAILEKMTFDPEIFFNVLLPPIIFHAGYSLKKRHFFQNLGSILTYAFLGTAISCIVIGLIMYGFVKAMVYAGQLKNGDFHFTDCLFFGSLMSATDPVTVLAIFHELHVDPDLYTLLFGESVLNDAVAIVLTYSISIYSPKENPNAFDAAAFFQSVGNFLGIFAGSFAMGSAYAVVTALLTKFTKLCEFPMLETGLFFLLSWSAFLSAEAAGLTGIVAVLFCGVTQAHYTYNNLSLDSKMRTKQLFEFMNFLAENVIFCYMGLALFTFQNHIFNALFILGAFLAIFVARACNIYPLSFLLNLGRKHKIPWNFQHMMMFSGLRGAIAFALAIRDTESQPKQMMFSTTLLLVFFTVWVFGGGTTPMLTWLQIRVGVDLDEDLKERPSSHQEANNLEKSTTKTESAWLFRMWYGFDHKYLKPILTHSGPPLTTTLPEWCGPISRLLTSPQAYGEQLKED
notes: Endosomal Na+/H+ exchanger NHE9 (SLC9A9), Equus caballus, partially truncated on the C-terminal tail, residues 8 to 575 out of a total of 644; also called SLC9A9; not shown: GFP, C-terminal, cleaved; TwinStrep, C-terminal, cleaved; His8, C-terminal, cleaved
For the molecule B1, the “stoichiometry N” value in series [1] came to 2.

B2: E. caballus NHE9*CC (NHE9* L139C-I444C double mutant) (domain or fragment, Equus caballus, UniProt F7B113 8-575, looked up)
chain: MSEKDEYQFQHQGAVELLVFNFLLILTILTIWLFKNHRFRFLHETGGAMVYGLIMGLILRYATAPTDIESGTVYDCGKLAFSPSTLLINITDQVYEYKYKREISQHNINPHLGNAILEKMTFDPEIFFNVLCPPIIFHAGYSLKKRHFFQNLGSILTYAFLGTAISCIVIGLIMYGFVKAMVYAGQLKNGDFHFTDCLFFGSLMSATDPVTVLAIFHELHVDPDLYTLLFGESVLNDAVAIVLTYSISIYSPKENPNAFDAAAFFQSVGNFLGIFAGSFAMGSAYAVVTALLTKFTKLCEFPMLETGLFFLLSWSAFLSAEAAGLTGIVAVLFCGVTQAHYTYNNLSLDSKMRTKQLFEFMNFLAENVIFCYMGLALFTFQNHIFNALFILGAFLAIFVARACNIYPLSFLLNLGRKHKIPWNFQHMMMFSGLRGACAFALAIRDTESQPKQMMFSTTLLLVFFTVWVFGGGTTPMLTWLQIRVGVDLDEDLKERPSSHQEANNLEKSTTKTESAWLFRMWYGFDHKYLKPILTHSGPPLTTTLPEWCGPISRLLTSPQAYGEQLKED
notes: Endosomal Na+/H+ exchanger NHE9 (SLC9A9), Equus caballus, residues 8 to 575 out of a total of 644, with L139C and I444C; also called cysteine variant; not shown: GFP, C-terminal, cleaved; TwinStrep, C-terminal, cleaved; His8, C-terminal, cleaved
Take B2: in series [2], the “stoichiometry N” value is 2.

B3: E. coli NhaA WT-like triple mutant (A109T, Q277G, L296M), P13738 1-388 (natural protein)
chain: MKHLHRFFSSDASGGIILIIAAILAMIMANSGATSGWYHDFLETPVQLRVGSLEINKNMLLWINDALMAVFFLLVGLEVKRELMQGSLASLRQAAFPVIAAIGGMIVPTLLYLAFNYADPITREGWAIPAATDIAFALGVLALLGSRVPLALKIFLMALAIIDDLGAIIIIALFYTNDLSMASLGVAAVAIAVLAVLNLCGARRTGVYILVGVVLWTAVLKSGVHATLAGVIVGFFIPLKEKHGRSPAKRLEHVLHPWVAYLILPLFAFANAGVSLGGVTLDGLTSILPLGIIAGMLIGKPLGISLFCWLALRLKLAHLPEGTTYQQIMVVGILCGIGFTMSIFIASLAFGSVDPELINWAKLGILVGSISSAVIGYSWLRVRLRPSV
B3 returned a stoichiometry N in series [3] of 2.
